PMC10572428, “Possibility of Using Different Calcium Compounds for the Manufacture of Fresh Acid Rennet Cheese from Goat’s Milk” (Foods, 2023)
Like-named read-outs stand apart in the source and are kept apart here.

Experiments:
[1] = pH value of goat's milk after pasteurization with added calcium compound; format: physicochemical
Method: (§1) Doses of calcium (5, 10, 15, and 20 mg Ca 100 g^−1 milk), based on the calcium compound’s molecular weight, were added to 100 g of raw goat’s milk in the form of chloride, gluconate, lactate, and carbonate and tested to determine the pH value and thermal stability of milk. A control sample (0 mg Ca 100 g^−1 milk) was also prepared. The samples were heated in a water bath to 25 °C, mixed, and pasteurized (90 °C, 15 s). In the cooled (25 °C) samples of control milk and milk with calcium addition, the pH value was determined using a FiveEasy pH meter with an electrode InLab® Solids Pro-ISM (Mettler Toledo, Greifensee, Switzerland).

[2] = pH of fresh acid rennet cheese; format: physicochemical, goat
Method: Fresh acid rennet cheese was produced following the methodology by Pawlos et al. (Scheme 1). The caprine milk was divided into batches, each containing 2000 g of milk, heated to 25 °C, and treated with varying amounts and dosages of calcium compound. The control sample (0 mg Ca per 100 g of milk) and milk with calcium addition (5, 10, 15, 20 mg Ca per 100 g of milk) were pasteurized in a water bath at 90 °C for 15 s. Subsequently, the milk was cooled to 28 °C, and each batch was inoculated with 0.20% (w/w) of starter culture for 15 min before adding 0.02% (v/w) of rennet. […] Acid rennet curds were then cut into 15 × 15 × 15 mm cubes and heated in a water bath at 35 °C for 1.5 h. Following this, the temperature was increased to 40 °C for 0.5 h. The whey was separated using cheesecloth, and the curds were transferred to molds, pressed (10 N kg^−1, 0.5 h) using a pneumatic cylinder press (Pneumatig, Gdynia, Poland), and refrigerated in labeled individual plastic containers at 4 °C for 24 h prior to analysis. All physicochemical analyses were conducted on ground cheese samples.
A pH meter (FiveEasy Mettler Toledo, Greifensee, Switzerland) and an electrode InLab® Solids Pro-ISM (Mettler Toledo, Greifensee, Switzerland) were used to determine the pH value in cheese.

[3] = Thermal stability of goat milk proteins during pasteurization (90 °C, 15 s); format: physicochemical; conditions: doses up to 20 mg Ca per 100 g of milk
Method: as §1

[4] = parameters: method as in doi:10.1111/j.1471-0307.2010.00613.x; conditions: 30 mM calcium added before heating; cited from earlier work
[5] = Texture profile analysis (TPA) of cheese; format: physicochemical, goat
Method: Fresh acid rennet cheese was produced following the methodology by Pawlos et al. (Scheme 1). The caprine milk was divided into batches, each containing 2000 g of milk, heated to 25 °C, and treated with varying amounts and dosages of calcium compound. The control sample (0 mg Ca per 100 g of milk) and milk with calcium addition (5, 10, 15, 20 mg Ca per 100 g of milk) were pasteurized in a water bath at 90 °C for 15 s. Subsequently, the milk was cooled to 28 °C, and each batch was inoculated with 0.20% (w/w) of starter culture for 15 min before adding 0.02% (v/w) of rennet. The mixture was stirred and incubated at 28 °C until the pH reached 4.60 (±0.50) in a Cooled Incubator ILW 115 (POL-EKO Aparatura, Wodzisław Śląski, Poland). Acid rennet curds were then cut into 15 × 15 × 15 mm cubes and heated in a water bath at 35 °C for 1.5 h. Following this, the temperature was increased to 40 °C for 0.5 h. The whey was separated using cheesecloth, and the curds were transferred to molds, pressed (10 N kg^−1, 0.5 h) using a pneumatic cylinder press (Pneumatig, Gdynia, Poland), and refrigerated in labeled individual plastic containers at 4 °C for 24 h prior to analysis. All physicochemical analyses were conducted on ground cheese samples.
The texture profile analysis test (TPA) was performed with a CT3 Texture Analyzer and Texture Pro CT 1.2 software (Brookfield AMETEK, Middleboro, MA, USA). Before testing, cheese samples were cut (20 × 20 × 20 mm) and kept at a temperature of 10 °C ± 1 °C. Compression test was performed using a plastic plunger type TA3/100 (25.4 mm diameter) and configured with the following parameters: distance 15 mm, measurement speed 5 mm s^−1, contact load 1.00 N, and hold time 1 s. The TPA test was applied to measure cheese hardness (N), adhesiveness (mJ), cohesiveness, and springiness (mm).

[6] = parameters: method as in doi:10.21608/jfds.2019.54698; conditions: cited from earlier work

O=C([O-])[O-].[Ca+2] [Carbonate, calcium carbonate]
increase of milk pH value compared to the control sample [1]: 0.11 | cheese pH value higher than the control cheese [2]: 0.19 | thermal stability of milk during pasteurization [3]: not reduced

[Ca+2].[Cl-].[Cl-] [Chloride, Calcium chloride]
reduction of pH of cow's milk [4]: up to 0.64 | reduction of milk pH value compared to the control sample ([1]; greatest reduction): 0.23 | reduction of milk pH ([1]; lowest dose of calcium, 5 mg 100 g^−1): 0.17 | Springiness ([5]; 5 mg Ca 100 g^−1 of milk): 1.27 mm | pH of Karish cheese ([6]; 200 mg 100 mL^−1 added to milk): 4.69 | pH of Karish cheese ([6]; 300 mg 100 mL^−1 added to milk): 4.50 | thermal stability of milk during pasteurization [3]: not reduced

O=C([O-])[C@H](O)[C@@H](O)[C@H](O)[C@H](O)CO.O=C([O-])[C@H](O)[C@@H](O)[C@H](O)[C@H](O)CO.[Ca+2] [Gluconate, calcium gluconate]
Cohesiveness ([5]; 15 mg Ca 100 g^−1 of milk): 0.30 | Springiness ([5]; 15 mg Ca 100 g^−1 of milk): 3.94 mm | pH ([2]; cheese, 20 mg Ca 100 g^−1 of milk): 4.61 | thermal stability of milk during pasteurization [3]: not reduced

CC(O)C(=O)[O-].CC(O)C(=O)[O-].[Ca+2] (stereo not drawn) [Lactate, calcium lactate]
thermal stability of milk during pasteurization [3]: not reduced
